Laboratory results reported in patent US8188117B2, “Piperidinyl-substituted isoquinolone derivatives” (Sanofi-Aventis, priority 2005, dated 2012).

target: T1, ROCKII or ROKα (Homo sapiens, UniProt O75116); assay: Determination of Rho kinase inhibition (γ33P ATP, Streptavidin Flash Plate); format: biochemical; details: ATP 40 μM, enzyme 0.1 ng/μl, 20 min at room temperature, tested as salt or free base obtained in the examples
T1 construct: purchased Upstate 14-451
Method: Determination of Rho Kinase Inhibition
To measure Rho-kinase inhibition, IC50 values were determined according to the following protocol:
Buffer: 25 mM Tris pH7.5; 0.02% BSA; 5% Glycerol; 0.008% Triton X100; 2% DMSO, 1 mM DTT; 1 mM MgCl2; 0.5 μCi/well γ^33P ATP
Enzyme: ROCKII or ROKα) (Upstate, Catalog #14-451 Lot #24880U) 0.1 ng/μl Final concentration of ATP in reaction mixture 40 μM
Biotinylated substrate, diluted to 0.25 μM with buffer described above (without ATP)
• 1. 10 μl Tris buffer (±Inhibitor) • 2. Add 30 μL of enzyme solution • 3. Start the reaction with 30 μL of mix substrate/ATP/ATP33 • 4. Incubate for 20 min at room temperature • 5. Stop reaction with 30 μL of 50 mM EDTA • 6. Transfer 50 μL of stopped solution to Streptavidin Flash Plate plus, Perkin Elmer, SMP 103A • 7. Incubate for 30 min at RT • 8. Wash 4 times with 300 μl of PBS/0.1% Tween 20 • 9. Radioactivity in the well was determined

T1 sequence (O75116 whole entry): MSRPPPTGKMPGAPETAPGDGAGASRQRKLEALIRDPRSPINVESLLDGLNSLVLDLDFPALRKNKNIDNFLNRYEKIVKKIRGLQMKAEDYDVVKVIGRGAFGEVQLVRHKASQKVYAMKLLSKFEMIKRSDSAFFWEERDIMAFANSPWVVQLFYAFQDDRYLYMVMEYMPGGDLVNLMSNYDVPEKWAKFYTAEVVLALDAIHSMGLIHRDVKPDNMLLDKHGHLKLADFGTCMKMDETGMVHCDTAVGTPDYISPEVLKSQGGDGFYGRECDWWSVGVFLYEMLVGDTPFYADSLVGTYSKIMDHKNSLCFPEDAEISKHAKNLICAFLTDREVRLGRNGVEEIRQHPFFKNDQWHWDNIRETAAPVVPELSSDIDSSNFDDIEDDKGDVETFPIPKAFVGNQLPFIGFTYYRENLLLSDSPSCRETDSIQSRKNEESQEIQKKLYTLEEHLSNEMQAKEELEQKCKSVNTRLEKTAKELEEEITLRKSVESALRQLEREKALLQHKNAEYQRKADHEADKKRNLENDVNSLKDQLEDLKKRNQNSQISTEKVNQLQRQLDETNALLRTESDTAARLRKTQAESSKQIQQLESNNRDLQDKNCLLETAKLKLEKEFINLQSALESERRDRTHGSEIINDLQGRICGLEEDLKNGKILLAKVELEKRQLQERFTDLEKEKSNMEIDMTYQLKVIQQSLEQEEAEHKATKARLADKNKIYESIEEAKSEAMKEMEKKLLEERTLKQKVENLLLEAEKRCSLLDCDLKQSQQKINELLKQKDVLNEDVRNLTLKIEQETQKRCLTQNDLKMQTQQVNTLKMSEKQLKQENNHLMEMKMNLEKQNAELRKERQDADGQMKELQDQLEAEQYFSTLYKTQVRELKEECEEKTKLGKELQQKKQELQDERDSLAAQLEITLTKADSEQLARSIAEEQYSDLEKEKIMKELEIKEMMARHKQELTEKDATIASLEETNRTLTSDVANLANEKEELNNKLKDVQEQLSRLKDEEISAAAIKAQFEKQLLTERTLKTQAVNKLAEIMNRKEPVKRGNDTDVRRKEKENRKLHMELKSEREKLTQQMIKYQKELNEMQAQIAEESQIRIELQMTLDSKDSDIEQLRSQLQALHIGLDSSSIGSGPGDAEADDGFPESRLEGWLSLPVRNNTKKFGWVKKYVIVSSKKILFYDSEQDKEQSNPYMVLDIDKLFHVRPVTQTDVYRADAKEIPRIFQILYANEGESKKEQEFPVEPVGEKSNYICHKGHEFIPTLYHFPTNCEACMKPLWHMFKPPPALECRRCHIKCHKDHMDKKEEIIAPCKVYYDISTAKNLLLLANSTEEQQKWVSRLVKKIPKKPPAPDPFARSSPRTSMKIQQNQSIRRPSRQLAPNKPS

Row | SMILES | pIC50
1 | Cc1cc2c(=O)[nH]ccc2cc1OC1CCN(CC2CCOC2)CC1 (centres unmarked) [Example 265] | +++++ (6.0 ≦ pIC50)
2 | Cc1cc2c(=O)[nH]ccc2cc1OC1CCN(Cc2ccc(S(C)(=O)=O)cc2)CC1 [Example 275] | +++++ (6.0 ≦ pIC50)
3 | CN1CCC(Oc2ccc3c(=O)[nH]ccc3c2)CC1 [Example 40] | +++++ (6.0 ≦ pIC50)
4 | Cc1cc2c(=O)[nH]ccc2cc1OC1CCN(Cc2ccsc2)CC1 [Example 266] | +++++ (6.0 ≦ pIC50)
5 | CCc1c[nH]c(=O)c2ccc(OC3CCNCC3)cc12 [Example 31] | +++++ (6.0 ≦ pIC50)
6 | CCCN1CCC(Oc2cc3cc[nH]c(=O)c3cc2F)CC1 [Example 101] | +++++ (6.0 ≦ pIC50)
7 | O=c1[nH]ccc2cc(OC3CCN(CC4CC4)CC3)ccc12 [Example 58] | +++++ (6.0 ≦ pIC50)
8 | Cc1cc2c(=O)[nH]ccc2cc1OC1CCN(Cc2ccccn2)CC1 [Example 276] | +++++ (6.0 ≦ pIC50)
9 | O=c1[nH]ccc2cc(OC[C@H]3CCCNC3)ccc12 [Example 49] | ++++ (5.0 ≦ pIC50 < 6.0)
10 | CCc1c[nH]c(=O)c2cc(F)c(OC3CCNCC3)cc12 [Example 32] | ++++ (5.0 ≦ pIC50 < 6.0)

The next lines start with the values.

Row | pIC50 | SMILES
11 | ++++ (5.0 ≦ pIC50 < 6.0) | COc1cc2c(=O)[nH]ccc2cc1OC1CCNCC1 [Example 25]
12 | +++++ (6.0 ≦ pIC50) | Cc1c[nH]c(=O)c2ccc(OC3CCNCC3)cc12 [Example 21]
13 | +++++ (6.0 ≦ pIC50) | O=c1[nH]cc(Br)c2cc(OC3CCNCC3)ccc12 [Example 52, 4-Bromo-6-(piperidin-4-yloxy)-2H-isoquinolin-1-one]
14 | +++++ (6.0 ≦ pIC50) | CC(C)N1CCC(Oc2cc3ccnc(O)c3cc2Cl)CC1 [Example 55, 7-Chloro-6-(1-isopropyl-piperidin-4-yloxy)-2H-isoquinolin-1-one]
15 | +++++ (6.0 ≦ pIC50) | O=c1[nH]ccc2cc(OC3CCNCC3)ccc12 [Example 12, 6-(Piperidin-4-yloxy)-2H-isoquinolin-1-one]
16 | +++++ (6.0 ≦ pIC50) | O=c1[nH]ccc2cc(OC3CCNCC3)c(F)cc12 [Example 23]
17 | +++++ (6.0 ≦ pIC50) | O=c1[nH]ccc2c(Cl)c(OC3CCNCC3)ccc12 [Example 309, 5-Chloro-6-(piperidin-4-yloxy)-2H-isoquinolin-1-one]
18 | +++++ (6.0 ≦ pIC50) | O=c1[nH]ccc2cc(OC3CCNCC3)c(Br)cc12 [Example 17, 7-Bromo-6-(piperidin-4-yloxy)-2H-isoquinolin-1-one]
19 | +++++ (6.0 ≦ pIC50) | Cc1cc2c(=O)[nH]cc(C)c2cc1OC1CCNCC1 [Example 28]
20 | +++++ (6.0 ≦ pIC50) | Oc1nccc2cc(OC3CCNCC3)c(Cl)cc12 [Example 54, 7-Chloro-6-(piperidin-4-yloxy)-2H-isoquinolin-1-one]
